Data on 8 compounds can be found in PMC10982501, “Synthesis and biological evaluation of novel benzothiazole derivatives as potential anticancer and antiinflammatory agents” (Frontiers in Chemistry, 2024).

One data set concerns human cancer cell lines. Details: method as in Mortimer et al., 2006. As to conditions: particularly non-small cell lung, colon and breast cancer lines; ref Mortimer et al., 2006; cited from earlier work.
The nature of data set [1]: Oil-water partition coefficient (log P) measurement. As to conditions: n-octanol/water, room temperature. The data set is classed as physicochemical. The procedure:
The partition coefficient between n-octanol and water (log Po/w) is the classical descriptor for Lipophilicity ([Daina et al., 2017]). The test methodology followed previously published protocols ([Wang et al., 2021]). At room temperature, two large Erlenmeyer flasks were taken and filled with n-octanol and water, respectively. The flasks were placed in a constant temperature shaker at 150 rpm for 24 h to saturate the solvents. The mixtures were then transferred to separating funnels under normal pressure to obtain water-saturated n-octanol and n-octanol-saturated water for subsequent use. The target compound (2 mg) was accurately weighed and placed in a 2 mL brown volumetric flask. Anhydrous methanol was added to ultrasonically dissolve the compound, and the mixture was diluted to volume and thoroughly shaken to prepare a 1 mg/mL stock solution. The stock solution was further diluted to obtain 1, 1.5, 2, 2.5, 5 and 10 μg/mL reference solutions for construction of a standard curve using a UV-visible spectrophotometer. An excess amount of the analyte was dissolved in water-saturated n-octanol, and the mixture was shaken at 150 rpm for 24 h at constant temperature to obtain a saturated solution. The saturated solution was allowed to stand, centrifuged, and 1 mL of the supernatant was transferred to a 4 mL centrifuge tube. N-octanol saturated water (1 mL) was added, and the mixture was shaken at 150 rpm for 24 h at constant temperature. After standing for 8 h, the mixture was centrifuged. Appropriate amounts of the n-octanol phase before and after equilibration were diluted with methanol, and concentrations were determined from the standard curve to obtain C0 and C1. The concentration in the n-octanol saturated aqueous phase, Cw, was calculated as Cw = C0 - C1. Thus, log Po/w = […].

Another data set deals with H1299 cells. In words: MTT cell proliferation assay, H1299. It counts as cell-based, human. The following applies: for inhibition at 10 µM / IC50: Homo sapiens, NCI-H1299, 48 h; for inhibition at 10 µM: read-out: H1299 cells inhibition rate; for IC50: read-out: IC50 (mean ± SD) H1299. As for the experimental part: (§1) Beas-2b, A431, A549 and H1299 cells were cultured in 96-well plates (5 × 10^3 cells/well) for 16 h, respectively. Subsequently, positive compound 4i and 25 newly synthesized compounds were added at a final concentration of 10 μM or gradient concentrations (0.01, 0.1, 0.5, 1, 5 and 10 μM), co-incubated with the cells for 48 h. MTT (M8180, Solarbio) solutions (5 mg/mL) were then added and incubated for 4 h in the dark. Then, formazan crystals were dissolved with DMSO (D8371, Solarbio), followed by shaking on a shaker (DRAGONLAB, China) for 10 min. Finally, absorbance at 490 nm wavelength for each well was measured with Microplate reader (Molecular Devices, United States) ([Tang et al., 2020]; [Lee et al., 2021]). The results are expressed as mean ± SD from three independent experiments. Cells inhibition rates or IC50 values were calculated using GraphPad Prism 9.5.0.

The next data set has as its system TNF-α. The data set can be described thus: ELISA of TNF-α in LPS-stimulated RAW264.7 cells. As to conditions: 10 μM, RAW264.7, LPS, 24 h, vs blank control. It counts as cell-based, mouse. The procedure:
(§2) RAW264.7 cells were cultured in 6-well plates (2×10^5 cells/well) for 24 h and treated with 25 newly synthesized compounds (final concentration at 10 μM) for 30 min, respectively. Subsequently, the cells were stimulated with 1 μL of LPS (500 ng/mL) (L8880, Solarbio). After 24 h, the supernatant was collected and analyzed using an ELISA kit (EK206 and EK182, MULTISCIENCES) to quantify the levels of inflammatory cytokines IL-6 and TNF-α ([Li et al., 2021]).
A general note: In an ELISA, binding on a coated surface is turned into a signal by an enzyme label.

The subject of the next data set is IL-6. In words: ELISA of IL-6 in LPS-stimulated RAW264.7 cells. The data set is classed as cell-based, mouse. The following applies: 10 μM, RAW264.7, LPS, 24 h, vs blank control. The procedure:
as §2

Data set [2] relates to A431 cells. In words: MTT cell proliferation assay, A431. The data set is classed as cell-based, human. The following applies: for inhibition at 10 µM / IC50: Homo sapiens, A-431, 48 h; for inhibition at 10 µM: read-out: A431 cells inhibition rate; for IC50: read-out: IC50 (mean ± SD) A431. As for the experimental part: as §1
(In general: Tetrazolium assays rely on reduction of a dye to a coloured formazan, in cell work by metabolically active cells.)

A further data set deals with Beas-2b cells. In words: MTT cell proliferation and toxicity assay, Beas-2b. It counts as cell-based, human. The following applies: Homo sapiens, BEAS-2B, 48 h, read-out: Beas-2b cells inhibition rate. As for the experimental part:
as §1

The subject of data set [3] is A549 cells. The data set can be described thus: MTT cell proliferation assay, A549. The following applies: for inhibition at 10 µM / IC50: Homo sapiens, A549, 48 h; for inhibition at 10 µM: read-out: A549 cells inhibition rate; for IC50: read-out: IC50 (mean ± SD) A549. The data set is classed as cell-based, human. As for the experimental part: as §1
Data set [4] has as its system A549 cells. The data set can be described thus: Flow cytometry analysis of cell cycle, A549. It counts as cell-based, human. As to conditions: A549, 24 h. The procedure:
(§3) The A431 and A549 cells were cultured in 6-well plates (1×10^5 cells/mL) for 16 h. Subsequently, they were treated with different concentrations (1, 2 and 4 μM) of either B7 or 4i (4 μM) for 24 h. Cells were collected, mixed by adding 75% ethanol with shaking on a vortex shaker, and placed in the refrigerator at 4°C for overnight fixation. The cells were incubated with PI-Raze solution for 15 min at room temperature, protected from light, according to the instructions of BD Cycletest Plus DNA Reagent Kit (340242, BD), and detected by FACS Calibur flow cytometry ([Oh et al., 2023]), and subsequent data analysis was performed using FlowJo 10.6.2.
Background: Flow cytometry measures light scatter and fluorescence of single cells or particles in a stream.

The test system of data set [5] is non-small cell lung cancer cell line HOP-92. Details: method as in Noolvi et al., 2012. As to conditions: ref Noolvi et al., 2012; cited from earlier work.
Data set [6] relates to A431 cells. In words: Flow cytometry analysis of cell cycle, A431. The following applies: A431, 24 h. It counts as cell-based, human. The procedure: as §3

Each structure is given as a SMILES string.

Regarding `COc1ccc(-c2nc3cc(F)ccc3s2)cc1OC` [PMX610, 2-(3,4-dimethoxyphenyl)-5-fluorobenzothiazole], in the data set with human cancer cell lines, the “in vitro anti-tumor properties in human cancer cell lines, in words” value was “potent and selective in vitro anti-tumor properties”.

One may read the logP as a log measure of how a compound divides between an organic and an aqueous phase. Lower therefore signals lower lipophilicity. By inhibition is commonly meant how much of the control response was suppressed. `CCOC(=O)COc1ccccc1-c1nc2ccccc2s1` [A1, Ethyl 2-(2-(benzo[d]thiazol-2-yl)phenoxy)acetate] came in with a logP in data set [1] of 2.35 ± 0.21. Further, the inhibition at 10 µM in the data set with H1299 cells (10 μM) amounted to 49.5 ± 0.84%; in the data set with A431 cells [2] (10 μM) it was 45.6 ± 1.21%; in the data set with Beas-2b cells it was 10.2 ± 0.92%; in the data set with A549 cells [3] (10 μM), 42.3 ± 1.15%. Besides, in the data set on TNF-α, the “effect on TNF-α expression” value was “significant inhibitory effects”. Besides, the “effect on IL-6 expression” value in the data set on IL-6 is “significant inhibitory effects”.

One may read the IC50 as the concentration needed to halve the response being measured. For `Clc1cccc(Cl)c1Nc1nc2cccc(Cl)c2s1` [4i, 7-chloro-N-(2,6-dichlorophenyl) benzo[d] thiazole-2-amine, reference compound], the “cell cycle arrest, in words” value in the data set with A549 cells [4] and in the data set with A431 cells [6] was “G2 phase cell cycle arrest effect” each time. In addition, the figures for the half-inhibitory concentration (IC50) in the data set with H1299 cells, with A431 cells [2] and in the data set on A549 cells [3] were 2.48 ± 0.53 µM, 2 ± 0.41 µM and 1.09 ± 0.32 µM, respectively. The “anticancer activity against HOP-92, in words” value in data set [5] is “promising anticancer activity”.

In turn, `COc1ccc(C(=O)Nc2nc3ccc(Cl)cc3s2)cc1` [C5, N-(6-chlorobenzo[d]thiazol-2-yl)-4-methoxybenzamide] returned a logP in [1] of 2.87 ± 0.15. Moreover, in the data set with H1299 cells (10 μM, 48 h), the “H1299 cells inhibition rate” value came out at 51.98 ± 0.24%. Moreover, the inhibition at 10 µM in the data set with H1299 cells (10 μM) was more than 50%; with A431 cells [2] (10 μM), more than 50%; in the data set with Beas-2b cells, 17.2 ± 1.24%; with A549 cells [3] (10 μM), more than 50%. For the same compound, the half-inhibitory concentration (IC50) worked out at 8.94 ± 1.21 µM in the data set on H1299 cells, 4.35 ± 0.9 µM in the data set on A431 cells [2] and 9.82 ± 0.98 µM in the data set on A549 cells [3]. In addition, in the data set with A431 cells [2] (10 μM, 48 h), the “A431 cells inhibition rate” value came out at 55.67 ± 2.34%. The “A549 cells inhibition rate” value in the data set with A549 cells [3] (10 μM, 48 h) was 56.33 ± 2.96%.

`O=[N+]([O-])c1ccccc1COc1ccccc1-c1nc2ccccc2s1` [A2, 2-(2-((2-nitrobenzyl)oxy)phenyl)benzo[d]thiazole]: in data set [1], the logP was 3.51 ± 0.19. Further, the inhibition at 10 µM turned out to be 42.4 ± 1.26% in the data set on H1299 cells (10 μM), 35.8 ± 2.03% with A431 cells [2] (10 μM), 17.3 ± 3.26% in the data set on Beas-2b cells and 33.1 ± 2.34% with A549 cells [3] (10 μM).

In data set [1], `Clc1ccc2nc(N(Cc3ccccc3)Cc3ccccc3)sc2c1` [D2, N,N-dibenzyl-6-chlorobenzo[d]thiazol-2-amine] registered a logP of 5.82 ± 0.22. The inhibition at 10 µM in the data set on H1299 cells (10 μM) was 46.9 ± 2.71%; with A431 cells [2] (10 μM), 43.6 ± 1.39%; in the data set with Beas-2b cells, 24.3 ± 3.1%; in the data set on A549 cells [3] (10 μM), 40.3 ± 1.06%. Further, the “effect on TNF-α expression” value with TNF-α is given as “significant inhibitory effects”. Also, the “effect on IL-6 expression” value in the data set with IL-6 was “significant inhibitory effects”.

In data set [1], `COc1ccc(CNc2nc3ccc(F)cc3s2)cc1OC` [B3, N-(3,4-dimethoxybenzyl)-6-fluorobenzo[d]thiazol-2-amine] yielded a logP of 2.56 ± 0.12. Moreover, the inhibition at 10 µM in the data set with H1299 cells (10 μM) is 44.6 ± 1.75%; in the data set with A431 cells [2] (10 μM), 32.4 ± 2.92%; with Beas-2b cells, 25.4 ± 2.01%; in the data set with A549 cells [3] (10 μM), 22.4 ± 1.34%.

In turn, `O=C(Nc1nc2ccc(Cl)cc2s1)c1ccccc1F` [C7, N-(6-chlorobenzo[d]thiazol-2-yl)-2-fluorobenzamide] returned a logP in data set [1] of 2.9 ± 0.32. Also, the inhibition at 10 µM in the data set on H1299 cells (10 μM) came to 48.28 ± 0.37%; with A431 cells [2] (10 μM), 40.4 ± 1.33%; in the data set on Beas-2b cells, 21.4 ± 2.25%; in the data set with A549 cells [3] (10 μM), 44.6 ± 0.94%.
